# Measurements taken from ChEMBL document CHEMBL3997855, “Discovery of Fevipiprant (NVP-QAW039), a Potent and Selective DP2 Receptor Antagonist for Treatment of Asthma” (ACS Med Chem Lett, 2017).
# pEC50, pIC50, pKd, pKi: −log10 of the molar value.
# Legend:
# [1] = target: T1, Prostaglandin D2 receptor 2 (Homo sapiens, UniProt Q9Y5Y4); assay: Displacement of [3H]PGD2 from human DP2 receptor expressed in CHO cell membranes after 60 mins by scintillation proximity assay
# T1 sequence (Q9Y5Y4 whole entry): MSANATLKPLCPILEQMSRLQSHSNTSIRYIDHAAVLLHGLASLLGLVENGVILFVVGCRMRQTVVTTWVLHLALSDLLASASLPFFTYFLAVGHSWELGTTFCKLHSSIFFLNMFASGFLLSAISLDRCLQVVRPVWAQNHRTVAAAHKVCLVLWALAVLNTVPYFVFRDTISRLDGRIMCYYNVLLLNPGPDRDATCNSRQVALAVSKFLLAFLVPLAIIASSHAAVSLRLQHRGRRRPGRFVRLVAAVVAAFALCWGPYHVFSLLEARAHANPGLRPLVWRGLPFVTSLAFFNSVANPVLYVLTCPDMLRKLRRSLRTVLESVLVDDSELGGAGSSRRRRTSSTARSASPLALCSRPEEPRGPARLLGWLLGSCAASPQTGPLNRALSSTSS
# [2] = target: T1, Prostaglandin D2 receptor 2; assay: Antagonist activity at DP2 receptor in human isolated eosinophils assessed as inhibition of DK-PGD2-induced shape change preincubated for 5 mins followed by DK-PGD2 addition measured after 5 mins by flow cytometry
# [3] = Clearance in Wistar rat at 0.5 mg/kg, iv or 3 mg/kg, po by LC-MS/MS analysis; assay type: ADME, organism-based; conditions: in vivo
# [4] = Volume of distribution at steady state in Wistar rat at 0.5 mg/kg, iv or 3 mg/kg, po by LC-MS/MS analysis; assay type: ADME, organism-based; conditions: in vivo, read-out: Vdss
# [5] = Half life in Wistar rat at 0.5 mg/kg, iv by LC-MS/MS analysis; assay type: ADME, organism-based; conditions: in vivo
# [6] = Oral bioavailability in Wistar rat at 3 mg/kg by LC-MS/MS analysis; assay type: ADME, organism-based; conditions: in vivo
# [7] = target: T1, Prostaglandin D2 receptor 2; assay: Displacement of [3H]NVP-QAW039 from human DP2 receptor expressed in CHO cell membranes by TopCount scintillation assay
# [8] = target: T2, Prostaglandin D2 receptor 2 (Homo sapiens) (UniProt Q9Y5Y4)
# T2 sequence (whole entry): T1 sequence (Q9Y5Y4 whole entry)
# Description: Displacement of [3H]NVP-QAW039 from human DP2 receptor expressed in CHO cell membranes assessed as dissociation half life by TopCount scintillation assay
# Rattus norvegicus [9] = assay: In vivo antagonist activity at DP2 receptor in Sprague-Dawley rat DK-PGD2-induced pulmonary eosinophilia mechanistic model assessed inhibition of eosinophilia in broncho alveolar lavage fluid at 0.03 to 0.1 mg/kg, po pretreated for 40 mins starting at 2 hrs post IL-5 administration followed by DK-PGD2 administration measured after 2 hrs; assay type: functional, organism-based
# [10] = Fraction unbound in plasma of Sprague-Dawley rat DK-PGD2-induced pulmonary eosinophilia mechanistic model at 0.03 to 0.1 mg/kg, po by equilibrium dialysis method; assay type: ADME, organism-based
# [11] = target: T1, Prostaglandin D2 receptor 2; assay: Antagonist activity at DP2 receptor in CD4-positive human TH2 cells assessed as inhibition of DK-PGD2-induced IL-5 production after 6 to 8 hrs
# [12] = target: T1, Prostaglandin D2 receptor 2; assay: Antagonist activity at DP2 receptor in CD4-positive human TH2 cells assessed as inhibition of DK-PGD2-induced IL-13 production after 6 to 8 hrs
# [13] = target: T1, Prostaglandin D2 receptor 2; assay: Antagonist activity at DP2 receptor in CD4-positive human TH2 cells assessed as inhibition of PGD2-induced IL-4 production preincubated for 30 mins followed by PGD2 addition measured after 6 hrs
# [14] = target: T3, Prostaglandin D2 receptor (Homo sapiens, UniProt Q13258); assay: Antagonist activity at DP1 receptor (unknown origin)
# T3 sequence (Q13258 whole entry): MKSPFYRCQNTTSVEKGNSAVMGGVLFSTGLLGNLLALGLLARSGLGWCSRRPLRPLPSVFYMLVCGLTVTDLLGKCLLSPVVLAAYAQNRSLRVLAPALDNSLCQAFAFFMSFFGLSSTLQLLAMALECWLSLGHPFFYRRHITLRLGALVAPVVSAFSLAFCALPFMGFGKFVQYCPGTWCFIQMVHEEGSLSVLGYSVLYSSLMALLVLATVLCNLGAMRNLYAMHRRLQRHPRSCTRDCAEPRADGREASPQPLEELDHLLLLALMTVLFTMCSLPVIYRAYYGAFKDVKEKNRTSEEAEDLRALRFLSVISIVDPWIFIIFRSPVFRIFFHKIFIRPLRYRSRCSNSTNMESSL
# [15] = target: Prostaglandin E2 receptor EP2 subtype (Homo sapiens, UniProt P43116); assay: Antagonist activity at EP2 receptor (unknown origin)
# [16] = target: Prostaglandin E2 receptor EP4 subtype (Homo sapiens, UniProt P35408); assay: Antagonist activity at EP4 receptor (unknown origin)
# [17] = target: Prostaglandin F2-alpha receptor (Homo sapiens, UniProt P43088); assay: Antagonist activity at FP receptor (unknown origin)
# Thromboxane A2 receptor = target: T4, Thromboxane A2 receptor (Homo sapiens, UniProt P21731); assay: Antagonist activity at TP receptor (unknown origin)
# T4 sequence (P21731 whole entry): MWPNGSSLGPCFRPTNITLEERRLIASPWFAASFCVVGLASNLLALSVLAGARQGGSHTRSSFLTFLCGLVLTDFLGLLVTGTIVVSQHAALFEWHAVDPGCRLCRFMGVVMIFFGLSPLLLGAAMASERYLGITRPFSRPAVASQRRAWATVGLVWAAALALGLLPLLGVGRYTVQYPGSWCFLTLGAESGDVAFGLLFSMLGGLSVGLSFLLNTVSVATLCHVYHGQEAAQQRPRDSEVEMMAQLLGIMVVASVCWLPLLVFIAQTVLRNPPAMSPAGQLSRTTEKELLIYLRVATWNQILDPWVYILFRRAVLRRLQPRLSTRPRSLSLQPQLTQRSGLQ
# [18] = target: T5, Prostaglandin E2 receptor EP3 subtype (Homo sapiens, UniProt P43115); assay: Agonist activity at EP3 receptor (unknown origin)
# T5 sequence (P43115 whole entry): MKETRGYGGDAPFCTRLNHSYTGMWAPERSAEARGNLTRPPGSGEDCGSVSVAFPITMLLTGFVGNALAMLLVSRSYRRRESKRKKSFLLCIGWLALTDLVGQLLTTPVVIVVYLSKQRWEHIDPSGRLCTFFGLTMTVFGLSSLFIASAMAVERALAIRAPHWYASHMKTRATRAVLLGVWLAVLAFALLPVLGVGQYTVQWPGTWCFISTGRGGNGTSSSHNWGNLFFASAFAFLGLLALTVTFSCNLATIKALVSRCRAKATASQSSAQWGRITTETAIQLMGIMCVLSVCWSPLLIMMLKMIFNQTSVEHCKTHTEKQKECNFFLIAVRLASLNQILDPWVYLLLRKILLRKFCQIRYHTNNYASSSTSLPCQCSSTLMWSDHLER
# [19] = target: T5, Prostaglandin E2 receptor EP3 subtype; assay: Antagonist activity at EP3 receptor (unknown origin)
# Prostacyclin receptor [20] = target: T6, Prostacyclin receptor (Homo sapiens, UniProt P43119); assay: Agonist activity at IP receptor (unknown origin)
# Prostacyclin receptor [21] = target: T6, Prostacyclin receptor; assay: Antagonist activity at IP receptor (unknown origin)
# Rattus norvegicus [22] = species on record: Rattus norvegicus; assay: Toxicity in rat; conditions: in vivo
# Canis familiaris = species on record: Canis familiaris; assay: Toxicity in dog; design: species or system Canis lupus familiaris; conditions: in vivo
# Cytochrome P450 1A2 = target: T7, Cytochrome P450 1A2 (Homo sapiens, UniProt P05177); assay: Inhibition of human CYP1A2; assay type: ADME
# T7 sequence (P05177 whole entry): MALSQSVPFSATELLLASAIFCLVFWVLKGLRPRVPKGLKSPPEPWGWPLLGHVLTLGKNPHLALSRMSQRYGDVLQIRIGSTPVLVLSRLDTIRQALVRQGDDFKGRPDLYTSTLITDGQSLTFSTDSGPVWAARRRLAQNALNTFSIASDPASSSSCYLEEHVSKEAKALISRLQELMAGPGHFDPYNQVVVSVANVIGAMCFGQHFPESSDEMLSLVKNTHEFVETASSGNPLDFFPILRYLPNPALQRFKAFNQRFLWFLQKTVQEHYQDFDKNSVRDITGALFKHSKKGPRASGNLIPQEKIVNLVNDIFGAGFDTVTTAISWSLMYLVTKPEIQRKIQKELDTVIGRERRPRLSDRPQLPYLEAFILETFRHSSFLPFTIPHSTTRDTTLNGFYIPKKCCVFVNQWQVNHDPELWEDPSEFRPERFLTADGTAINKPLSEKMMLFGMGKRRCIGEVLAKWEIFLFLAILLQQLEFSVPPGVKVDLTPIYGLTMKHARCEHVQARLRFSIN
# Cytochrome P450 2C9 = Cytochrome P450 2C9 (Homo sapiens, UniProt P11712); assay: Inhibition of human CYP2C9; assay type: ADME
# Cytochrome P450 2D6 = Cytochrome P450 2D6 (Homo sapiens, UniProt P10635); assay: Inhibition of human CYP2D6; assay type: ADME
# Cytochrome P450 3A4 = Cytochrome P450 3A4 (Homo sapiens, UniProt P08684); assay: Inhibition of human CYP3A4; assay type: ADME
# [23] = target: T8, Nuclear receptor subfamily 1 group I member 2 (Homo sapiens, UniProt O75469); assay: Activation of PXR (unknown origin) assessed as CYP3A4 induction; assay type: ADME
# T8 sequence (O75469 whole entry): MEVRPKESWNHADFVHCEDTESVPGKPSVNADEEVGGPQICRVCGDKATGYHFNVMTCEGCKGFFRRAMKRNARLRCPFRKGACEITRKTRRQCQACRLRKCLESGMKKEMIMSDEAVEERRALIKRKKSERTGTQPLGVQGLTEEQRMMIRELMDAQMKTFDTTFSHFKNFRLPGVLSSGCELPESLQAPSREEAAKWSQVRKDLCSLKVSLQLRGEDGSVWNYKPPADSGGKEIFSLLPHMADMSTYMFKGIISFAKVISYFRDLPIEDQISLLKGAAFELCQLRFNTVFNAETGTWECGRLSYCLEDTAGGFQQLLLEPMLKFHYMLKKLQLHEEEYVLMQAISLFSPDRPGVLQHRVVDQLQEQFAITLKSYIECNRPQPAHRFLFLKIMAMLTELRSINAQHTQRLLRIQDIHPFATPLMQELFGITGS
# T6 sequence (P43119 whole entry): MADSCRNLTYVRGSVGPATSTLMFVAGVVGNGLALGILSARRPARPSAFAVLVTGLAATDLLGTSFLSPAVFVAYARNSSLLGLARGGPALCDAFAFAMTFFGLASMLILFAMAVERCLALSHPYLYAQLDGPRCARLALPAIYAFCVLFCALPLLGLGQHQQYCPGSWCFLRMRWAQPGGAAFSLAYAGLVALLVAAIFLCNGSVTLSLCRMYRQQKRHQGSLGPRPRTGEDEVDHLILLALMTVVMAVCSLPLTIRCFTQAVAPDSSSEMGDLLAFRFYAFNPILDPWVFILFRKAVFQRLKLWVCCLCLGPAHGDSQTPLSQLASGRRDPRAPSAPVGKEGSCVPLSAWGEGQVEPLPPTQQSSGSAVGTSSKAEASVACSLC
# Cytochrome P450 2D6, sequence (P10635 whole entry): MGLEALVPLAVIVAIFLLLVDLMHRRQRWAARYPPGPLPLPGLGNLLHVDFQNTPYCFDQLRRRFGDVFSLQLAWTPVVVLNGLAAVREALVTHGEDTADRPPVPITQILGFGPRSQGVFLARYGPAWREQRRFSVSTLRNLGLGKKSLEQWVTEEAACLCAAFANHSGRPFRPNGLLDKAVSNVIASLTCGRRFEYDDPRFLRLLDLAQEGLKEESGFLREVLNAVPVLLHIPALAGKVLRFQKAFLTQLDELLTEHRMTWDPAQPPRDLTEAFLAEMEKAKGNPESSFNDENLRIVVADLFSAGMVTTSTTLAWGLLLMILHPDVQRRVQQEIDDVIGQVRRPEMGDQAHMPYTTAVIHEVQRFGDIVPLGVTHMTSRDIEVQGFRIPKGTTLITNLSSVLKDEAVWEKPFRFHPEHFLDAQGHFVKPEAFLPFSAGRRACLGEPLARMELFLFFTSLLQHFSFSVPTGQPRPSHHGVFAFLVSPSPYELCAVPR
# Prostaglandin F2-alpha receptor, sequence (P43088 whole entry): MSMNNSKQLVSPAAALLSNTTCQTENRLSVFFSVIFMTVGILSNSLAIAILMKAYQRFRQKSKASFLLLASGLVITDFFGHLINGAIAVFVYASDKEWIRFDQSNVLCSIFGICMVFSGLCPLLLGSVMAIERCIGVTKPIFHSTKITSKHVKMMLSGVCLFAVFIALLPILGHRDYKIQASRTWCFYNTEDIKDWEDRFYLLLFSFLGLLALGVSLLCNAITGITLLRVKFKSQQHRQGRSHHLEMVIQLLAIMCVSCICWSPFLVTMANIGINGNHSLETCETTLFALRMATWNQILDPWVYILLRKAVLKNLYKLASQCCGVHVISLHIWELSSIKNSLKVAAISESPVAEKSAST
# Cytochrome P450 3A4, sequence (P08684 whole entry): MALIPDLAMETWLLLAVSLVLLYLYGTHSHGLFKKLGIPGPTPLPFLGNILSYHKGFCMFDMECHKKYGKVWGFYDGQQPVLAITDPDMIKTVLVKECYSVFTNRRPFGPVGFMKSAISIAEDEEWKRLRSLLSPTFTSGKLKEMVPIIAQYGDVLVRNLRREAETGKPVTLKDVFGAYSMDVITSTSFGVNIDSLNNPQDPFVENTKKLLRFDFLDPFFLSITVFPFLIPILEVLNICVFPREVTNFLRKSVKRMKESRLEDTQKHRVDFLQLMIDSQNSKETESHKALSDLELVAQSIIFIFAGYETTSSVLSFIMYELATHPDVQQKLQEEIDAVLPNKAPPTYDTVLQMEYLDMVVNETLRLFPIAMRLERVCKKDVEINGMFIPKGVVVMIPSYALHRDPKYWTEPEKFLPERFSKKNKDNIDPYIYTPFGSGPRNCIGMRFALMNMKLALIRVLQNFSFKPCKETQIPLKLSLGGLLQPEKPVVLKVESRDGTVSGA
# Cytochrome P450 2C9, sequence (P11712 whole entry): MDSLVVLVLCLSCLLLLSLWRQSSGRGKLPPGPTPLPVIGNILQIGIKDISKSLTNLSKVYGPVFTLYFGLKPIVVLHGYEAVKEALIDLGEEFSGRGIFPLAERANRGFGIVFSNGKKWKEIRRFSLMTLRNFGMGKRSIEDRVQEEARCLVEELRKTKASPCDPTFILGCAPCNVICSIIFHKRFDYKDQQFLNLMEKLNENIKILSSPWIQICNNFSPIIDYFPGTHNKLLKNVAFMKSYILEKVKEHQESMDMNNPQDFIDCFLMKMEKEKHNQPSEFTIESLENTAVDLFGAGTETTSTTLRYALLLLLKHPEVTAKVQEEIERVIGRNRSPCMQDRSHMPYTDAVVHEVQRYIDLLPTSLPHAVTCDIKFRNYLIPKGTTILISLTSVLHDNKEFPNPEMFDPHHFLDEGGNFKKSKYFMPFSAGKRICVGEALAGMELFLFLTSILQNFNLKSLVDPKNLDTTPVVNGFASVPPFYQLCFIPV
# Prostaglandin E2 receptor EP2 subtype, sequence (P43116 whole entry): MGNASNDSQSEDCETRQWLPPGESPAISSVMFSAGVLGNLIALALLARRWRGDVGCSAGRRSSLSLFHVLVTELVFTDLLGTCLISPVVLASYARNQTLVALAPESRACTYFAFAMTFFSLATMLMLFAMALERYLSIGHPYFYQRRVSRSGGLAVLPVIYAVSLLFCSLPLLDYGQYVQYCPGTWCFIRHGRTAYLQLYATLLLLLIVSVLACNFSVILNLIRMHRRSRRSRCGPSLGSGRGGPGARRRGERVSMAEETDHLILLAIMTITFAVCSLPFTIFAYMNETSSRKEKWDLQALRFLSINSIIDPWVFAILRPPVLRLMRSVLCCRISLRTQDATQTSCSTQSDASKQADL
# Prostaglandin E2 receptor EP4 subtype, sequence (P35408 whole entry): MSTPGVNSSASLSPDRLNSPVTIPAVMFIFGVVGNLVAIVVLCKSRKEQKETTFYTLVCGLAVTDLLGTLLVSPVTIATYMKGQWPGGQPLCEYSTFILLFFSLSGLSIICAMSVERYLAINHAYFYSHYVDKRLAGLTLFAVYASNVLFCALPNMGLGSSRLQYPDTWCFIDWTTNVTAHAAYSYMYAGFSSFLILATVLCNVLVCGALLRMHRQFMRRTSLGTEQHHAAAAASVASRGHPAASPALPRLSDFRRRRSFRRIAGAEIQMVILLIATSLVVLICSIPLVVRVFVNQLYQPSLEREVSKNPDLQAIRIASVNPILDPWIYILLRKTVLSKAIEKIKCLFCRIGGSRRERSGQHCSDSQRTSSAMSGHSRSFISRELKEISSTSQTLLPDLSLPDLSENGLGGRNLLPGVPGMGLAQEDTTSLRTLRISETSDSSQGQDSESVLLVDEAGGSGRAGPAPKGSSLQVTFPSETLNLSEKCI
smiles,measurement,setting,value
CCS(=O)(=O)c1ccc(Cn2c(C)c(CC(=O)O)c3cccnc32)c(Cl)c1,pKi,[1],8.22
same,pIC50,[2],8.89
same,clearance,[3],4.4 mL/min/kg
same,Vd,[4],1.1 L/kg
same,half-life,[5],462 min
same,bioavailability,[6],71%
same,pKd,[7],8.72
same,T1/2,[8],3.36 min
Cc1c(CC(=O)O)c2cccnc2n1Cc1ccc(S(C)(=O)=O)cc1Cl,pKi,[1],8.40
same,pIC50,[2],8.77
Cc1c(CC(=O)O)c2cccnc2n1Cc1ccc(C(F)(F)F)cc1C(F)(F)F,pIC50,[2],7.85
Cc1c(CC(=O)O)c2cccnc2n1Cc1ccc(S(=O)(=O)C(C)C)cc1,pKi,[1],7.07
Cc1c(CC(=O)O)c2cccnc2n1Cc1ccc(S(C)(=O)=O)cc1C(F)(F)F [FEVIPIPRANT],pIC50,[2],9.40
same,pIC50,Rattus norvegicus [9],8.19
same,fraction unbound,[10],0.08
same,clearance,[3],1.6 mL/min/kg
same,Vd,[4],1.1 L/kg
same,half-life,[5],792 min
same,bioavailability,[6],43%
same,pIC50,[11],8.59
same,pIC50,[12],8.85
same,pIC50,[13],8.51
same,pKd,[7],8.99
same,pIC50,[14],< 5.00
same,pIC50,[15],< 5.00
same,pIC50,[16],< 5.00
same,pIC50,[17],< 5.00
same,pIC50,Thromboxane A2 receptor,< 5.00
same,pEC50,[18],< 5.00
same,pIC50,[19],< 5.00
same,pEC50,Prostacyclin receptor [20],< 5.00
same,pIC50,Prostacyclin receptor [21],< 5.00
same,Activity,Rattus norvegicus [22],Non-Toxic
same,Activity,Canis familiaris,Non-Toxic
same,pIC50,Cytochrome P450 1A2,< 4.00
same,pIC50,Cytochrome P450 2C9,< 4.00
same,pIC50,Cytochrome P450 2D6,< 4.00
same,pIC50,Cytochrome P450 3A4,< 4.00
same,Activity,[23],Not Active
same,T1/2,[8],12 min
Cc1c(CC(=O)O)c2ccccc2n1Cc1ccc(S(C)(=O)=O)cc1,pKi,[1],7.72
same,pIC50,[2],7.70
same,pKd,[7],7.60
same,T1/2,[8],0.18 min
CCc1ccc2c(CC(=O)O)c(C)n(Cc3ccc(S(C)(=O)=O)cc3)c2n1,pKi,[1],7.33
same,pIC50,[2],8.22
CCS(=O)(=O)c1ccc(Cn2c(C)c(CC(=O)O)c3cccnc32)c(C(F)(F)F)c1,pKi,[1],8.15
same,pIC50,[2],9.10
same,clearance,[3],2.9 mL/min/kg
same,Vd,[4],1.2 L/kg
same,half-life,[5],552 min
same,bioavailability,[6],97%
